Data: patent US20250250230A1, “HETEROCYCLIC COMPOUND” (TAKEDA PHARMACEUTICAL COMPANY LIMITED, priority 2022, published 2025)

molecular target: T1, human orexin type 2 receptor (Homo sapiens, UniProt O43614); assay: Measurement of orexin type 2 receptor agonist activity (calcium fluorescence, Fluo-4 AM, FDSS); format: cell-based; conditions: test compound 3 μM; CHO cells expressing human OX2 receptor; DMSO = 0%, orexin A (human) = 100%
T1 construct: expressed in transfected cells
T1 sequence (O43614 1-444): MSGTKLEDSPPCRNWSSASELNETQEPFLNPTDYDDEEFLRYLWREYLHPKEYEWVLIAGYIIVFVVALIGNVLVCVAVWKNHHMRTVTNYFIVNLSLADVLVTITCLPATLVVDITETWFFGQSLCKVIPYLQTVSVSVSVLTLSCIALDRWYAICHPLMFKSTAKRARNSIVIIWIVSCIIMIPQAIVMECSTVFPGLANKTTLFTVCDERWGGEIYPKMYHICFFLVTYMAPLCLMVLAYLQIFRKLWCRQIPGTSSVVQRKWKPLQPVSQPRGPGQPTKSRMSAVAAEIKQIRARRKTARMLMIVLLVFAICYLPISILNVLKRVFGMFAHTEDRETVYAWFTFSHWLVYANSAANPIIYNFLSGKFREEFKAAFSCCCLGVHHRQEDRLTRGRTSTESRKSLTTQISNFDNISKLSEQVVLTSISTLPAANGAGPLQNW
How it was run: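 CHO-K1 cells stably expressing human OX2R were loaded with Fluo-4 AM (30 min 37 °C, 30 min RT) in HEPES-buffered HBSS with 0.1% BSA and probenecid. Calcium fluorescence was followed on FDSS for 2 min after compound addition; activity normalised to DMSO (0%) and 10 nM orexin A (100%).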

SMILES | OX2R agonist activity (3 μM, %)
CS(=O)(=O)N[C@@H](CO)C1CCN1C(=O)[C@@H]1C[C@@]1(F)c1ccccc1-c1c(F)cccc1F (stereo partly drawn) [Example 385, N-[(1R)-1-{(2R)-1-[(1S,2S)-2-(2′,6′-difluoro[1,1′-biphenyl]-2-yl)-2-fluorocyclopropane-1-carbonyl]azetidin-2-yl}-2-hydroxyethyl]methanesulfonamide, or N-[(1R)-1-{(2S)-1-[(1S,2S)-2-(2′,6′-difluoro[1,1′-biphenyl]-2-yl)-2-fluorocyclopropane-1-carbonyl]azetidin-2-yl}-2-hydroxyethyl]methanesulfonamide] | 95%
C[C@@H]1CN(C(=O)[C@@H]2C[C@@]2(F)c2ccc(F)cc2-c2c(F)cccc2F)[C@@H]1CNS(C)(=O)=O [Example 386, N-({(2S,3R)-1-[(1S,2S)-2-fluoro-2-(2′,5,6′-trifluoro[1,1′-biphenyl]-2-yl)cyclopropane-1-carbonyl]-3-methylazetidin-2-yl}methyl)methanesulfonamide] | 98%
C[C@H](NS(=O)(=O)C1CC1)[C@@H]1CCN1C(=O)[C@@H]1C[C@@]1(F)c1ccccc1-c1c(F)cccc1F [Example 387, N-[(1S)-1-{(2S)-1-[(1S,2S)-2-(2′,6′-difluoro[1,1′-biphenyl]-2-yl)-2-fluorocyclopropane-1-carbonyl]azetidin-2-yl}ethyl]cyclopropanesulfonamide] | 99%
C[C@H](NS(=O)(=O)C1(C)CC1)[C@@H]1CCN1C(=O)[C@@H]1C[C@@]1(F)c1ccccc1-c1c(F)cccc1F [Example 388, N-[(1S)-1-{(2S)-1-[(1S,2S)-2-(2′,6′-difluoro[1,1′-biphenyl]-2-yl)-2-fluorocyclopropane-1-carbonyl]azetidin-2-yl}ethyl]-1-methylcyclopropane-1-sulfonamide] | 98%
CC(C)S(=O)(=O)N[C@@H](C)[C@@H]1CCN1C(=O)[C@@H]1C[C@@]1(F)c1ccccc1-c1c(F)cccc1F [Example 389, N-[(1S)-1-{(2S)-1-[(1S,2S)-2-(2′,6′-difluoro[1,1′-biphenyl]-2-yl)-2-fluorocyclopropane-1-carbonyl]azetidin-2-yl}ethyl]propane-2-sulfonamide] | 97%
CS(=O)(=O)NC[C@@H]1[C@H](F)CN1C(=O)[C@@H]1C[C@@]1(F)c1ccccc1-c1c(F)cccc1F [Example 390, N-({(2R,3R)-1-[(1S,2S)-2-(2′,6′-difluoro[1,1′-biphenyl]-2-yl)-2-fluorocyclopropane-1-carbonyl]-3-fluoroazetidin-2-yl}methyl)methanesulfonamide] | 98%
CS(=O)(=O)NC[C@H]1[C@H](CO)CN1C(=O)[C@@H]1C[C@@]1(F)c1ccccc1-c1c(F)cccc1F [Example 391, N-{[(2R,3R)-1-[(1S,2S)-2-(2′,6′-difluoro[1,1′-biphenyl]-2-yl)-2-fluorocyclopropane-1-carbonyl]-3-(hydroxymethyl)azetidin-2-yl]methyl}methanesulfonamide] | 97%
CC(NS(C)(=O)=O)C12CC(C1)N(C(=O)[C@@H]1C[C@@]1(F)c1ccccc1-c1c(F)cccc1F)C2 (stereo partly drawn) [Example 392, N-[(1R)-1-{2-[(1S,2S)-2-(2′,6′-difluoro[1,1′-biphenyl]-2-yl)-2-fluorocyclopropane-1-carbonyl]-2-azabicyclo[2.1.1]hexan-4-yl}ethyl]methanesulfonamide, or N-[(1S)-1-{2-[(1S,2S)-2-(2′,6′-difluoro[1,1′-biphenyl]-2-yl)-2-fluorocyclopropane-1-carbonyl]-2-azabicyclo[2.1.1]hexan-4-yl}ethyl]methanesulfonamide] | 68%
